Test results taken from PubChem BioAssay (NCI).
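Results reflect a 48-hour exposure of cells in 96-well plates to compound at five concentrations. TGI: concentration producing complete growth inhibition.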

Key:
Test in all cases: NCI-60 cell line screen, 48 h
[1] = system: EKVX NSCLC
[2] = system: SK-MEL-2 melanoma
[3] = system: SK-MEL-28 melanoma
[4] = system: SNB-75 CNS
[5] = system: HS 578T breast
[6] = system: NCI-H23 lung
[7] = system: NCI-H226 lung
[8] = system: HT29 colon
[9] = system: MCF7 breast
[10] = system: NCI-H522 lung
[11] = system: HCT-116 colon
[12] = system: K-562 leukemia
[13] = system: SF-539 CNS
[14] = system: SR leukemia
[15] = system: KM12 colon
[16] = system: DU-145 prostate
[17] = system: SK-OV-3 ovarian
[18] = system: TK-10 renal
[19] = system: OVCAR-5 ovarian
[20] = system: T-47D breast
[21] = system: SF-268 CNS
[22] = system: MDA-N
[23] = system: MOLT-4 leukemia
[24] = system: CCRF-CEM leukemia
[25] = system: RPMI-8226 leukemia
[26] = system: HCC-2998 colon
[27] = system: A498 renal
[28] = system: MDA-MB-435
[29] = system: RXF 393 renal
[30] = system: UACC-257 melanoma
[31] = system: M14 melanoma
[32] = system: NCI-H460 lung
[33] = system: UO-31 renal
[34] = system: U251 CNS
[35] = system: HOP-62 NSCLC
[36] = system: ACHN renal
[37] = system: LOX IMVI melanoma
[38] = system: OVCAR-3 ovarian
[39] = system: HCT-15 colon
[40] = system: HL-60(TB) leukemia
[41] = system: SNB-19 CNS
[42] = system: BT-549 breast
[43] = system: MDA-MB-231 breast
[44] = system: MALME-3M melanoma
[45] = system: UACC-62 melanoma
[46] = system: SN12C renal
[47] = system: SW-620 colon
[48] = system: OVCAR-8 ovarian
[49] = system: OVCAR-4 ovarian
[50] = system: NCI/ADR-RES ovarian
[51] = system: HOP-92 NSCLC
[52] = system: COLO 205 colon
[53] = system: IGROV1 ovarian
[54] = system: 786-0 renal
[55] = system: SF-295 CNS
[56] = system: SK-MEL-5 melanoma
[57] = system: PC-3 prostate
[58] = system: CAKI-1 renal
[59] = system: A549 NSCLC

CC1CN=C(Nc2cccc(C(F)(F)F)c2)S1 (stereo unspecified)
TGI [1]: > 100 µM | TGI [2]: > 100 µM | TGI [3]: > 100 µM | TGI [4]: > 100 µM | TGI [5]: > 100 µM | TGI [6]: > 100 µM | TGI [7]: > 100 µM | TGI [8]: > 100 µM | TGI [9]: > 100 µM | TGI [10]: > 100 µM | TGI [11]: > 100 µM | TGI [12]: > 100 µM | TGI [13]: > 100 µM | TGI [14]: > 100 µM | TGI [15]: > 100 µM | TGI [16]: > 100 µM | TGI [17]: > 100 µM | TGI [18]: > 100 µM | TGI [19]: > 100 µM | TGI [20]: > 100 µM | TGI [21]: > 100 µM | TGI [22]: > 100 µM | TGI [23]: > 100 µM | TGI [24]: > 100 µM | TGI [25]: > 100 µM | TGI [26]: > 100 µM | TGI [27]: > 100 µM | TGI [28]: > 100 µM | TGI [29]: > 100 µM | TGI [30]: > 100 µM | TGI [31]: > 100 µM | TGI [32]: > 100 µM | TGI [33]: 78.6 µM | TGI [34]: > 100 µM | TGI [35]: > 100 µM | TGI [36]: > 100 µM | TGI [37]: > 100 µM | TGI [38]: > 100 µM | TGI [39]: > 100 µM | TGI [40]: 77 µM | TGI [41]: > 100 µM | TGI [42]: > 100 µM | TGI [43]: > 100 µM | TGI [44]: > 100 µM | TGI [45]: > 100 µM

NC(=O)C/C=C/CC(N)=O
TGI [1]: > 100 µM | TGI [2]: > 100 µM | TGI [3]: > 100 µM | TGI [4]: > 100 µM | TGI [5]: > 100 µM | TGI [6]: > 100 µM | TGI [7]: > 100 µM | TGI [8]: > 100 µM | TGI [9]: > 100 µM | TGI [10]: > 100 µM | TGI [11]: > 100 µM | TGI [46]: > 100 µM | TGI [13]: > 100 µM | TGI [47]: > 100 µM | TGI [15]: > 100 µM | TGI [48]: > 100 µM | TGI [16]: > 100 µM | TGI [17]: > 100 µM | TGI [49]: > 100 µM | TGI [18]: > 100 µM | TGI [19]: > 100 µM | TGI [50]: > 100 µM | TGI [20]: > 100 µM | TGI [51]: > 100 µM | TGI [52]: > 100 µM | TGI [21]: > 100 µM | TGI [22]: > 100 µM | TGI [24]: > 100 µM | TGI [25]: > 100 µM | TGI [26]: > 100 µM | TGI [53]: > 100 µM | TGI [27]: > 100 µM | TGI [28]: > 100 µM | TGI [29]: > 100 µM | TGI [30]: > 100 µM | TGI [31]: > 100 µM | TGI [54]: > 100 µM | TGI [32]: > 100 µM | TGI [33]: > 100 µM | TGI [34]: > 100 µM | TGI [35]: > 100 µM | TGI [36]: > 100 µM | TGI [55]: > 100 µM | TGI [37]: > 100 µM | TGI [38]: > 100 µM | TGI [39]: > 100 µM | TGI [56]: > 100 µM | TGI [57]: > 100 µM | TGI [58]: > 100 µM | TGI [40]: > 100 µM | TGI [41]: > 100 µM | TGI [42]: > 100 µM | TGI [59]: > 100 µM | TGI [43]: > 100 µM | TGI [44]: > 100 µM | TGI [45]: > 100 µM
